Laboratory results: patent publication US20250108027A1, “TOPICAL DELIVERY OF EDTA COMPOSITIONS” (priority 2023, published 2025)
Values after ≈ are worked out from the molar mass of the structure shown.

Assays:
E. Coli HC1-R2A-1 [1] = conditions: alone, 37° C., 24 h
Procedure: (§1) Microbroth dilution in 96-well microtiter plates was performed on the E. coli and S. epidermidis strains. […] Each test was performed in duplicate. The MIC was determined as the lowest concentration where no growth was observed, but the adjacent wells had growth as determined by optical density.

S. epidermidis HC3-CA-1 [2] = assay: MIC in isolation, microbroth dilution; type: cell-based
Procedure: as §1

E. Coli HC1-R2A-1 [3] = assay: MBC in isolation, subculture from MIC plates; type: cell-based
Procedure: (§2) This new microtiter plate was incubated at 37° C. and growth was quantified after 24 h by measuring the optical density in the wells.

S. epidermidis HC3-CA-1 [4] = assay: MBC in isolation, subculture from MIC plates; type: cell-based
Procedure: as §2

E. Coli HC1-R2A-1 [5] = assay: MIC in combination, checkerboard titration; conditions: in combination with tetracycline
Procedure: (§3) Microtiter plates were incubated at 37° C. for 24 h and the results were analyzed. Each test included a growth control without addition of any antimicrobials, as well as an uninoculated control column to ensure there was no contamination in the plate. The combination MIC was taken as the concentration where no growth was observed by optical density but the wells immediately adjacent had growth. To determine the MBC, 5 μL aliquots were removed from each well in the 96-well MIC plates above and used to inoculate a new microtiter plate that was filled with Mueller-Hinton media. This new microtiter plate was incubated at 37° C. for 24 h and growth was quantified by measuring the optical density in the wells.
(§4) The potential interaction of the two antimicrobials was determined by the FICI (fractional inhibitory concentration index) and FBCI (fractional bactericidal concentration index).

S. epidermidis HC3-CA-1 [6] = assay: MIC in combination, checkerboard titration; conditions: in combination with tetracycline
Procedure: as §3, §4

E. Coli HC1-R2A-1 [7] = assay: MBC in combination, checkerboard titration and subculture; conditions: in combination with tetracycline
Procedure: as §3, §4

S. epidermidis HC3-CA-1 [8] = assay: as above; conditions: in combination with tetracycline
Procedure: as §3, §4

O=C([O-])CN(CCN(CC(=O)[O-])CC(=O)[O-])CC(=O)[O-].[Na+].[Na+].[Na+].[Na+] [T-EDTA, tetrasodium EDTA]
MIC in Isolation, T-EDTA (E. Coli HC1-R2A-1 [1]): 1 wt %
MIC in Isolation, T-EDTA (S. epidermidis HC3-CA-1 [2]; alone, 37° C., 24 h): 0.0625 wt %
MBC in Isolation, T-EDTA (E. Coli HC1-R2A-1 [3]; alone): 1 wt %
MBC in Isolation, T-EDTA (S. epidermidis HC3-CA-1 [4]; alone): 4 wt %
MIC in Combination, T-EDTA (E. Coli HC1-R2A-1 [5]): 0.25 wt %
MIC in Combination, T-EDTA (S. epidermidis HC3-CA-1 [6]): 0.015 wt %
MBC in Combination, T-EDTA (E. Coli HC1-R2A-1 [7]): 0.25 wt %
MBC in Combination, T-EDTA (S. epidermidis HC3-CA-1 [8]): 0.25 wt %

CN(C)[C@@H]1C(O)=C(C(N)=O)C(=O)[C@@]2(O)C(O)=C3C(=O)c4c(O)cccc4[C@@](C)(O)[C@H]3C[C@@H]12 [Tetracycline, tetracycline, reference compound]
MIC (S. epidermidis HC3-CA-1 [2]; Staphylococcus epidermidis, HC3CA1, read-out: MIC in Isolation, Tetracycline, alone, 37° C., 24 h): 8 µg/mL (≈ 18 µM)
MBC (E. Coli HC1-R2A-1 [3]; Escherichia coli, read-out: MBC in Isolation, Tetracycline, alone): 512 µg/mL (≈ 1150 µM)
MBC (S. epidermidis HC3-CA-1 [4]; Staphylococcus epidermidis, HC3CA1, read-out: MBC in Isolation, Tetracycline, alone): 8 µg/mL (≈ 18 µM)
